Experimental data published in ChEMBL document CHEMBL5614382, “Discovery of a new 1-(phenylsulfonyl)-1H-indole derivative targeting the EphA2 receptor with antiproliferative activity on U251 glioblastoma cell line” (Eur J Med Chem, 2024).
Calls of active or inactive are those of the source. No cut-off for these calls is given here.

Assays:
[1] = system: U-251; assay: Effect on EphA2 protein level in human U-251 cells in presence of ephrin-A1 at 30 uM incubated for 4 hrs by ELISA assay; assay type: functional, cell-based
[2] = system: U-251; assay: Antiproliferative activity against human U-251 cells assessed as inhibition of cell growth at 10 uM measured after 72 hrs by MTT assay; assay type: functional, cell-based

## C[C@H](CCC(=O)N[C@H](CC(=O)O)Cc1cn(S(=O)(=O)c2ccc(C(F)(F)F)cc2)c2ccccc12)[C@H]1CC[C@H]2[C@@H]3CC=C4C[C@@H](O)CC[C@]4(C)[C@H]3CC[C@]12C
[1]
  Activity: inactive
[2]
  Activity: Active
